Experimental data as given in US12497359B2, “Acrylamide derivatives” (NRG Therapeutics Ltd, priority 2020, dated 2025).

How the values were obtained:
[1] = Hepatocyte clearance assay, rat; assay type: in vitro ADME; settings: cryopreserved primary rat hepatocytes, average value from two experiments, read-out: Rat heps intrinsic clearance (CLint)
Outline: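 Cryopreserved rat or human hepatocytes at 0.5×10^6 viable cells/mL in L-15 medium, compound incubated at 37° C. with sampling to 120 min, in duplicate; parent remaining by LC/MS/MS. Half-life from ln(% remaining) vs time slope; CLint (μL/min/1×10^6 cells) = kV/N, V 0.2 mL, N 0.1×10^6 cells.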

mPTP = mPTP activity assay in isolated rat liver mitochondria (Ca2+ retention, Fluo5N, FLIPR); assay type: biochemical; settings: for mPTP Rat liver pIC50*: isolated rat liver mitochondria, average value from multiple experiments (n ≥ 2)
Outline: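 Freshly isolated female Sprague Dawley rat liver mitochondria in pH 7.4 buffer with 10 mM succinate, 1 μM rotenone and 2 μM Fluo5N, preincubated 10 min at RT with compound (30 μM to 1 nM). CaCl2 bolus (75 μM) added; IC50 from 10 min fluorescence, normalised to DMSO and 5 μM cyclosporin A.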

[2] = Hepatocyte clearance assay, human; assay type: in vitro ADME; settings: cryopreserved primary human hepatocytes, average value from two experiments, read-out: Human heps intrinsic clearance (CLint)
Experimental: In vitro clearance studies were performed in primary rat and human hepatocytes (BioIVT). Vials of cryopreserved rat or human hepatocytes were thawed in a 37° C. water bath for 2 min. Cells were transferred into thawing medium (Williams' Medium E containing 30% Percoll, 1× GlutaMAX-1, 15 mM HEPES, 5% fetal bovine serum (FBS), 4 μg/ml insulin, 1 μM dexamethasone), centrifuged at 100 g for 10 min then resuspended in culture medium (Leibovitz's L-15 Medium) at a concentration of 0.5×10^6 viable cells/mL (number of viable cells assessed using AO/PI staining). Hepatocytes (198 μL) were transferred into wells of a 96-well non-coated plate and placed in a 37° C. incubator for 10 min. Test compound solutions were prepared from 10 mM stocks in DMSO, diluted to 100 μM in 50% (v/v in water) acetonitrile. Test compound samples (2 μl) were added to each well of hepatocytes and incubated at 37° C. Samples (25 μl) were collected at t=0, 15, 30, […] and 120 min, mixed with 6 volumes (150 μl) of acetonitrile containing internal standard (100 nM alprazolam, 200 nM caffeine and 100 nM tolbutamide), vortexed for 5 min and centrifuged for 45 min at 3220 g. An aliquot of supernatant (100 μL) was diluted with 100 μL ultra-pure water, and the mixture was used for LC/MS/MS analysis. All incubations were performed in duplicate. Peak areas were determined from extracted ion chromatograms. The slope value, k, was determined by linear regression of the natural logarithm of the remaining percentage of the parent drug vs. incubation time curve. The in vitro half-life (in vitro t1/2) was determined from the slope value: in vitro t1/2=0.693/k. Conversion of the in vitro t1/2 (in min) into the in vitro intrinsic clearance (in vitro CLint, in μL/min/1×10^6 cells) was done using the following equation (mean of duplicate determinations): • in vitro CLint=kV/N • V=incubation volume (0.2 mL) • N=number of hepatocytes per well (0.1×10^6 cells). Microsomal Clearance Assay

hepatocyte CLint at 1 µM [2]	SMILES	hepatocyte CLint at 1 µM [1]	activity in the rat liver mitochondria assay (mPTP; comparison among Example compounds, in words)	mPTP Rat liver pIC50* (mPTP)
< 3 µL/min/1e6 cells	C[C@@H]1COc2ccccc2[C@@H]1NC(=O)/C=C/c1ccc2cn[nH]c2c1 (single isomer, unassigned) [Example 15d, (E)-3-(1H-indazol-6-yl)-N-(3-methylchroman-4-yl)acrylamide]			7.6
	O=C(/C=C/c1ccc2cn[nH]c2c1)N[C@@H]1CCc2ccccc21 [Example 3, (R,E)-N-(2,3-dihydro-1H-inden-1-yl)-3-(1H-indazol-6-yl)acrylamide]	28 µL/min/1e6 cells		7.2
< 3 µL/min/1e6 cells	COCc1ccccc1NC(=O)/C=C/c1ccc2cn[nH]c2c1 [Example 29, (E)-3-(1H-indazol-6-yl)-N-(2-(methoxymethyl)phenyl)acrylamide]	10 µL/min/1e6 cells		7.1

SMILES	hepatocyte CLint at 1 µM [2]	hepatocyte CLint at 1 µM [1]	activity in the rat liver mitochondria assay (mPTP; comparison among Example compounds, in words)	mPTP Rat liver pIC50* (mPTP)
C[C@H]1Cc2ccccc2[C@@H]1NC(=O)/C=C/c1ccc2cn[nH]c2c1 (single isomer, unassigned) [Example 14c]	40.4 µL/min/1e6 cells	48 µL/min/1e6 cells	highest activity	7.9
